Tested on: 947758-054-R-J2-PDC spheroid growth, percent test/control
Assay: Anticancer human tumor 947758-054-R-J2-PDC patient-derived colon adenocarcinoma cell line growth inhibition [CLK]
Conditions: spheroids with HUVEC and MSC; for IC50: curve of first compound; for viability, T/C: stronger effect = lower value
Summary of the method: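 Multi-cell-type spheroids combined patient-derived tumor cells with HUVEC endothelial cells and human mesenchymal stem cells. Paired agents were dosed in half-log steps down from about clinical Cmax, or from 10 microM where Cmax was unknown.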

[1] = second compound 0.0316 µM, first compound 0.0316 µM
[2] = second compound 0.0316 µM, first compound 0.1 µM
[3] = second compound 0.0316 µM, first compound 0.316 µM
[4] = second compound 0.0316 µM, first compound 1 µM
[5] = second compound 0.0316 µM, first compound 3.16 µM
[6] = second compound 0.0316 µM, first compound 10 µM
[7] = second compound 0.1 µM, first compound 0.0316 µM
[8] = second compound 0.1 µM, first compound 0.1 µM
[9] = second compound 0.1 µM, first compound 0.316 µM
[10] = second compound 0.1 µM, first compound 1 µM
[11] = second compound 0.1 µM, first compound 3.16 µM
[12] = second compound 0.1 µM, first compound 10 µM
[13] = second compound 0.316 µM, first compound 0.0316 µM
[14] = second compound 0.316 µM, first compound 0.1 µM
[15] = second compound 0.316 µM, first compound 0.316 µM
[16] = second compound 0.316 µM, first compound 1 µM
[17] = second compound 0.316 µM, first compound 3.16 µM
[18] = second compound 0.316 µM, first compound 10 µM
[19] = second compound 1 µM, first compound 0.0316 µM
[20] = second compound 1 µM, first compound 0.1 µM
[21] = second compound 1 µM, first compound 0.316 µM
[22] = second compound 1 µM, first compound 1 µM
[23] = second compound 1 µM, first compound 3.16 µM
[24] = second compound 1 µM, first compound 10 µM
[25] = second compound 3.16 µM, first compound 0.0316 µM
[26] = second compound 3.16 µM, first compound 0.1 µM
[27] = second compound 3.16 µM, first compound 0.316 µM
[28] = second compound 3.16 µM, first compound 1 µM
[29] = second compound 3.16 µM, first compound 3.16 µM
[30] = second compound 3.16 µM, first compound 10 µM
[31] = second compound 10 µM, first compound 0.0316 µM
[32] = second compound 10 µM, first compound 0.1 µM
[33] = second compound 10 µM, first compound 0.316 µM
[34] = second compound 10 µM, first compound 1 µM
[35] = second compound 10 µM, first compound 3.16 µM
[36] = second compound 10 µM, first compound 10 µM
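Also: spheroids exposed to compounds for one week before readout.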
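For viability, T/C in this document: 100% = DMSO vehicle control wells.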

For `Nc1ccn(C2OC(CO)C(O)C2(F)F)c(=O)n1` (centres undefined) + CN1CCN(c2cc(C(=O)Nc3cc4cc(-c5cnn(C)c5)ccc4cn3)ccn2)CC1, the IC50 (second compound 0.0316 µM) was 0.0331 µM, the IC50 (second compound 0.1 µM) was less than 0.0316 µM and the IC50 (second compound 0.316 µM) was less than 0.0316 µM. The IC50 (second compound 1 µM) was less than 0.0316 µM, the IC50 (second compound 3.16 µM) was less than 0.0316 µM and the IC50 (second compound 10 µM) was less than 0.0316 µM. The viability, T/C [1] was 51.6%, the viability, T/C [2] was 9.51% and the viability, T/C [3] was 11.7%. It also gave a viability, T/C [4] of 13.8%, a viability, T/C [5] of 10.8% and a viability, T/C [6] of 6.34%. It also gave a viability, T/C [7] of 20.8%, a viability, T/C [8] of 6.62% and a viability, T/C [9] of 10.4%. It also gave a viability, T/C [10] of 10.6%, a viability, T/C [11] of 7.69% and a viability, T/C [12] of 7.26%. It also gave a viability, T/C [13] of 2.49%, a viability, T/C [14] of 1.07% and a viability, T/C [15] of 1.17%. It also gave a viability, T/C [16] of 0.85%, a viability, T/C [17] of 0.53% and a viability, T/C [18] of 3.53%. It also gave a viability, T/C [19] of 0.13%, a viability, T/C [20] of 0.13% and a viability, T/C [21] of 2.17%. For the same molecule, the viability, T/C [22] was 0.08%, the viability, T/C [23] was 0.45% and the viability, T/C [24] was 0.11%. For the same molecule, the viability, T/C [25] was 1.66%, the viability, T/C [26] was 0.22% and the viability, T/C [27] was 0.38%. For the same molecule, the viability, T/C [28] was 0.21%, the viability, T/C [29] was 0.27% and the viability, T/C [30] was 0.3%. It also gave a viability, T/C [31] of 0.27%, a viability, T/C [32] of 0.28% and a viability, T/C [33] of 0.31%. It also gave a viability, T/C [34] of 0.32%, a viability, T/C [35] of 1.07% and a viability, T/C [36] of 0.35%.

In the case of `O=c1[nH]cc(F)c(=O)[nH]1` + CN1CCN(c2cc(C(=O)Nc3cc4cc(-c5cnn(C)c5)ccc4cn3)ccn2)CC1, the IC50 (second compound 0.0316 µM) is reported as 8.26 µM, the IC50 (second compound 0.1 µM) is reported as 6.15 µM and the IC50 (second compound 0.316 µM) is reported as less than 0.0316 µM. The IC50 (second compound 1 µM) was less than 0.0316 µM, the IC50 (second compound 3.16 µM) was less than 0.0316 µM and the IC50 (second compound 10 µM) was less than 0.0316 µM. The viability, T/C [1] was 124%, the viability, T/C [2] was 113% and the viability, T/C [3] was 103%. For the same molecule, the viability, T/C [4] was 143%, the viability, T/C [5] was 83.8% and the viability, T/C [6] was 43.2%. It also gave a viability, T/C [7] of 150%, a viability, T/C [8] of 167% and a viability, T/C [9] of 159%. It also gave a viability, T/C [10] of 166%, a viability, T/C [11] of 69.1% and a viability, T/C [12] of 36%. The viability, T/C [13] was 4.49%, the viability, T/C [14] was 7.16% and the viability, T/C [15] was 4.59%. It also gave a viability, T/C [16] of 5.49%, a viability, T/C [17] of 4.38% and a viability, T/C [18] of 3.92%. It also gave a viability, T/C [19] of 0.14%, a viability, T/C [20] of 0.31% and a viability, T/C [21] of 1.1%. For the same molecule, the viability, T/C [22] was 0.1%, the viability, T/C [23] was 2.13% and the viability, T/C [24] was 0.12%. For the same molecule, the viability, T/C [25] was 0.24%, the viability, T/C [26] was 1.5% and the viability, T/C [27] was 0.14%. It also gave a viability, T/C [28] of 0.16%, a viability, T/C [29] of 0.18% and a viability, T/C [30] of 2.35%. For the same molecule, the viability, T/C [31] was 0.67%, the viability, T/C [32] was 0.21% and the viability, T/C [33] was 0.25%. For the same molecule, the viability, T/C [34] was 0.21%, the viability, T/C [35] was 1.51% and the viability, T/C [36] was 0.31%.

Reference: PubChem BioAssay AID2060605 (Molecular Pharmacology Branch, DTP, NCI, 2025)
